Among the test systems are HCT-116 colon; OVCAR-4 ovarian; A498 renal; MDA-MB-435; NCI-H522 lung; OVCAR-3 ovarian; OVCAR-8 ovarian; UACC-62 melanoma; HL-60(TB) leukemia; MALME-3M melanoma.
Holding throughout (experiment): NCI-60 cell line screen, 48 h

The values that follow come from PubChem BioAssay (NCI).

The structures appear in SMILES notation. Several values for one entry are separate records, joined by “and”; a condition that tells them apart may be missing. Equal entries are not always repeated.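 Grown in 96-well plates, cells were treated for 48 hours with each compound at five concentrations. Insufficient inhibition: endpoint recorded as highest concentration tested. Here, GI50 denotes the concentration required for 50% inhibition of growth. The concentration for full growth arrest is given as TGI.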

As for `CCN(c1ccc(CO)c(Cl)c1)C(C)c1ccc(F)cc1` (configuration not stated), the GI50 is 4.22 µM in the test with HCT-116 colon; 7.97 µM with OVCAR-4 ovarian; 117 nM with A498 renal; 17300 nM with MDA-MB-435; 12.7 µM with NCI-H522 lung; 13.7 µM with OVCAR-3 ovarian. For the same compound, the GI50 was 14.1 µM in the test with OVCAR-8 ovarian, 3790 nM in the test with UACC-62 melanoma, 17.9 µM in the test with HL-60(TB) leukemia and 16700 nM in the test on MALME-3M melanoma. In addition, the TGI in the test with HCT-116 colon came out at 17.4 µM; with OVCAR-4 ovarian it was 20.7 µM; in the test with A498 renal, 0.843 µM; in the test on MDA-MB-435, 32.5 µM; in the test with NCI-H522 lung, 26.7 µM; with OVCAR-3 ovarian, 27.3 µM. Further, the TGI came to 30.2 µM in the test with OVCAR-8 ovarian, 16.9 µM in the test on UACC-62 melanoma, 38.1 µM in the test on HL-60(TB) leukemia and 31.8 µM with MALME-3M melanoma.
Regarding `C#C[C@]1(O)CC[C@H]2[C@@H]3CC=C4c5nc(Nc6ccccn6)sc5CC[C@]4(C)[C@H]3CC[C@@]21C`, the GI50 in the test on HCT-116 colon is 1.12 µM; in the test with OVCAR-4 ovarian it was 2.94 µM; with A498 renal, 260 nM; with MDA-MB-435, 1550 nM; in the test with NCI-H522 lung it was 1.86 µM; in the test on OVCAR-3 ovarian, 1.43 µM. Also, the GI50 in the test with OVCAR-8 ovarian is 1.77 µM; in the test with UACC-62 melanoma, 1150 nM; in the test on HL-60(TB) leukemia, 0.398 µM; in the test with MALME-3M melanoma, 677 nM. The TGI in the test with HCT-116 colon came out at 2.73 µM; in the test on OVCAR-4 ovarian, 9.42 µM; with A498 renal it was 1.19 µM; in the test on MDA-MB-435, 4.45 µM; with NCI-H522 lung it was 4.12 µM; with OVCAR-3 ovarian, 3.29 µM. In addition, the TGI in the test with OVCAR-8 ovarian was found to be 7.89 µM; with UACC-62 melanoma it was 2.68 µM; in the test on HL-60(TB) leukemia, 1.96 µM; in the test with MALME-3M melanoma, 2.32 µM.
Consider `COC(=O)c1ccc2c(c1)C(NC(C)=O)CCc1cc(OC)c(OC)c(OC)c1-2` (configuration not stated), for which the TGI is 0.391 µM with HCT-116 colon; greater than 100 µM with OVCAR-4 ovarian; 4.27 µM in the test with A498 renal; less than 0.01 µM with MDA-MB-435; 0.074 µM in the test with NCI-H522 lung; 1.23 µM in the test on OVCAR-3 ovarian. In addition, the TGI with OVCAR-8 ovarian was 9.1 µM; in the test with UACC-62 melanoma it was greater than 100 µM; in the test on HL-60(TB) leukemia it was 0.0285 µM; with MALME-3M melanoma it was greater than 100 µM.
`CSc1ccc(/C=C2\CNC/C(=C\c3ccc(SC)cc3)C2=O)cc1`: the GI50 in the test on HCT-116 colon was 31.4 µg/mL; in the test on OVCAR-4 ovarian, > 371 µM and 18.7 µg/mL; in the test on A498 renal, 35.2 µM and 33.2 µg/mL; in the test with NCI-H522 lung, 22.3 µg/mL; in the test with OVCAR-3 ovarian, 47.4 µg/mL; with OVCAR-8 ovarian, 116 µg/mL. Moreover, the GI50 is 93.5 µg/mL with UACC-62 melanoma, 15.2 µg/mL in the test on HL-60(TB) leukemia and 150 µg/mL in the test with MALME-3M melanoma. Besides, the TGI in the test on HCT-116 colon was > 371 µM and 150 µg/mL; with OVCAR-4 ovarian it was > 371 µM and 28.7 µg/mL; with A498 renal it was 159 µM and 118 µg/mL; in the test with MDA-MB-435, greater than 371 µM; in the test with NCI-H522 lung it was > 161 µM and 63.5 µg/mL; in the test on OVCAR-3 ovarian, > 136 µM and 150 µg/mL. Also, the TGI in the test on OVCAR-8 ovarian was > 102 µM and 150 µg/mL; with UACC-62 melanoma, > 214 µM and 150 µg/mL; in the test on HL-60(TB) leukemia it was 362 µM and 99.8 µg/mL; in the test on MALME-3M melanoma it was > 371 µM and 150 µg/mL.
Consider `C/C(=N\O)c1ccc(Nc2cc(-n3nnc4ccccc43)nc3ccccc23)cc1`, for which the GI50 in the test with HCT-116 colon was 7.64 µM; with OVCAR-4 ovarian, 13.9 µM; in the test with A498 renal, 7250 nM; in the test on MDA-MB-435, 8860 nM; in the test with NCI-H522 lung, 6.39 µM; with OVCAR-3 ovarian, 16.3 µM. In addition, the GI50 with OVCAR-8 ovarian was 5.65 µM; in the test with UACC-62 melanoma, 6900 nM; in the test with HL-60(TB) leukemia, 10.6 µM; in the test with MALME-3M melanoma it was 11200 nM. For the same compound, the TGI with HCT-116 colon is 23.7 µM; with OVCAR-4 ovarian it was greater than 72.2 µM; with A498 renal, 30.8 µM; in the test with MDA-MB-435, greater than 28.3 µM; with NCI-H522 lung, 22.8 µM; in the test on OVCAR-3 ovarian, 43.1 µM. For the same compound, the TGI came to 18.3 µM in the test with OVCAR-8 ovarian, 19 µM in the test with UACC-62 melanoma, 45.7 µM in the test with HL-60(TB) leukemia and 36.1 µM in the test with MALME-3M melanoma.
`CC1(C)CCC(C)(C)c2cc(C(=O)Nc3ccc(C(=O)O)cc3)ccc21`: the TGI in the test with HCT-116 colon was 37.4 µM; in the test with OVCAR-4 ovarian, 67.1 µM; in the test on A498 renal, greater than 100 µM; in the test on MDA-MB-435, greater than 74.3 µM; in the test on NCI-H522 lung it was 70.6 µM; in the test with OVCAR-3 ovarian it was 40.4 µM. The TGI in the test on OVCAR-8 ovarian is greater than 88.5 µM; with UACC-62 melanoma, 41.2 µM; in the test on HL-60(TB) leukemia, greater than 53.1 µM; in the test with MALME-3M melanoma it was greater than 100 µM.
In the case of `CC1(C)O[C@H]2OC3CCC(=O)CC3(O)[C@H]2O1` (some centres not stated), the TGI in the test on HCT-116 colon, with OVCAR-4 ovarian, with A498 renal, in the test on MDA-MB-435, in the test on NCI-H522 lung and in the test on OVCAR-3 ovarian was greater than 100 µM throughout. For the same compound, the TGI in the test with OVCAR-8 ovarian, in the test on UACC-62 melanoma, in the test on HL-60(TB) leukemia and in the test on MALME-3M melanoma was greater than 100 µM in each case.
In the case of `Cc1ccc(C(=O)Nc2ccc(CN3CCN(C)CC3)c(C(F)(F)F)c2)cc1C#Cc1cnc(N)c2ccc(F)cc12`, the GI50 was 0.192 µM with HCT-116 colon; 0.329 µM in the test on OVCAR-4 ovarian; 327 nM in the test on A498 renal; 123 nM in the test on MDA-MB-435; 0.214 µM with NCI-H522 lung; 0.359 µM in the test on OVCAR-3 ovarian. Besides, the GI50 with OVCAR-8 ovarian was 0.297 µM; in the test on UACC-62 melanoma, 329 nM; with HL-60(TB) leukemia it was 0.198 µM; in the test with MALME-3M melanoma it was 141 nM. In addition, the TGI came out at 0.533 µM with HCT-116 colon; 2.32 µM in the test with OVCAR-4 ovarian; 0.961 µM with A498 renal; 0.47 µM with MDA-MB-435; 0.723 µM in the test with NCI-H522 lung; 1.06 µM in the test with OVCAR-3 ovarian. Moreover, the TGI with OVCAR-8 ovarian worked out at 2.37 µM; in the test on UACC-62 melanoma, 1.02 µM; in the test with HL-60(TB) leukemia it was 1.35 µM; with MALME-3M melanoma, 0.597 µM.
For `CN1CCCN(CCNc2nccc(-c3c(-c4cccc(O)c4)nc4sccn34)n2)S1(=O)=O`, the GI50 is 2.96 µM and 4.39 µM in the test on HCT-116 colon; 6.72 µM and 8.49 µM in the test with OVCAR-4 ovarian; 5310 nM and 3400 nM with A498 renal; 285 nM and 438 nM with MDA-MB-435; 5.54 µM and 9.27 µM with NCI-H522 lung; 13.7 µM and 7.69 µM with OVCAR-3 ovarian. Also, the GI50 in the test with UACC-62 melanoma was 41.7 nM and 53.7 nM; in the test with HL-60(TB) leukemia it was 14.1 µM and 11.3 µM; in the test on MALME-3M melanoma it was 58.3 nM. For the same compound, the TGI in the test with HCT-116 colon was 14.9 µM and 18.8 µM; with OVCAR-4 ovarian it was 52.2 µM and > 100 µM; with A498 renal, 17.5 µM and 12.6 µM; with MDA-MB-435, 20.6 µM and > 71.8 µM; in the test with NCI-H522 lung, 27.2 µM and 42.1 µM; with OVCAR-3 ovarian, 75 µM and 99 µM. The TGI with UACC-62 melanoma is 1.4 µM and 2.22 µM; in the test on HL-60(TB) leukemia, 38.3 µM and 32 µM; with MALME-3M melanoma it was 3.91 µM.
